Measurements reported in PMC11195807, “Development of a multi-targeted chemotherapeutic approach based on G-quadruplex stabilisation and carbonic anhydrase inhibition” (Journal of Enzyme Inhibition and Medicinal Chemistry, 2024).
Values joined by “and” are separate entries in the source; they are usually repeats but may differ in a detail not shown here. Equal values may be shown once.

Key:
[1] = test system: Tel23; test: CD melting experiments, Tel23 GQ; format: binding, human; conditions: for ΔT1/2 Tel23: 2 molar equiv compound, T1/2 of DNA alone 53.5 °C; for ΔΔT1/2 Tel23: ΔT1/2 of compound minus ΔT1/2 of berberine, 2 molar equiv
Description: (§1) The 21 synthesised MTDLs were screened for their ability to bind to and stabilise DNA GQ-forming sequences, compared to berberine, by CD experiments. Indeed, circular dichroism has shown to be outstandingly useful and informative for noncanonical nucleic acid secondary structures. For this purpose, a G-rich 23-nucleotide truncation (23-nt) of the human telomeric sequence (Tel23) and two G-rich motifs from the promoter regions of c-KIT (c-Kit1) and c-MYC (c-Myc) oncogenes were employed. First, the overall topology adopted by each DNA sequence in K^+-containing buffer was verified by CD spectra. […] GQ conformation (Figure S1, Supporting Information). On the other hand, c-Kit1 and c-Myc sequences adopted a parallel GQ conformation, showing a distinctive positive band at around 260 nm and a negative one at ∼240 nm in their CD spectra (Figures S2 and S3, Supporting Information).
(§2) Afterwards, the GQ-stabilising properties of the molecules were assessed by CD melting experiments, measuring the differences in the apparent melting temperatures of the DNA in the presence and absence of compounds (ΔT1/2) (Figures S4–S6 and Table S2, Supporting Information). […] This could be explained by considering the higher accessibility of the external G-tetrads in the case of parallel GQs compared to the hybrid one[52], which would allow the additional CAI moiety of conjugated compounds to be better accommodated in the binding site. […] . […] .

[2] = test system: Hairpin; test: CD melting experiments, hairpin DNA duplex; conditions: 2 molar equiv compound, T1/2 of DNA alone 66.0 °C
Description: To evaluate the possible binding and stabilisation of double-stranded DNA, a 27-nt long hairpin-forming sequence (Hairpin) was employed.
In particular, the following DNA sequences were synthesised and employed for the experiments: d([sequence]) (c-Kit1), d([sequence]) (c-Myc), d([sequence]) (Tel23), and d([sequence]) (Hairpin). Oligonucleotides were dissolved in the proper buffer and their concentration was measured by UV absorption at 90 °C, as previously reported[80]^,[81]. To achieve the correct folding of the sequences, the DNA solutions were heated in a water bath at 90 °C for 5 min, and then allowed to cool slowly to room temperature overnight. Then, DNA samples were stored at 4 °C for 24 h, before data acquisition.
The samples were prepared by dissolving the oligonucleotides in 5 mM KH2PO4/K2HPO4 buffer (pH 7.0) containing 20 mM KCl (or LiCl in the case of c-Myc because of its high thermal stability). DNA concentrations of 20 µM for GQs and 30 µM for Hairpin were used. For each compound, a 10 mM stock solution in 100% DMSO was prepared. […] CD spectra were acquired at 20 and 100 °C, in the 230–320 nm wavelength range, averaged over three scans and subtracted of the buffer baseline. The scanning speed was set to 100 nm/min, with a 0.5 s response time, and 1 nm bandwidth. CD melting experiments were carried out in the 20–100 °C temperature range, with 1 °C/min heating rate, by following changes in the CD signal at the wavelengths of the maximum CD intensity (i.e. 263 nm for c-Kit1 and c-Myc, and 290 nm for Tel23). As for Hairpin, CD melting curves were recorded by following the changes in the CD signal at 252 nm (the wavelength of the minimum CD intensity). CD melting curves were normalised between 0 and 1. […] The ΔT1/2 values correspond to the difference in the T1/2 values of the nucleic acid structures in the presence and absence of the compounds. All experiments were performed in duplicate, and the reported values are the mean of the two measurements.

[3] = molecular target: T1, hCA II (Homo sapiens, UniProt P00918); test: stopped-flow CO2 hydrase assay, hCA II; format: biochemical
T1 construct: made in house
Description: . The structure-activity relationship is discussed separately for the two compound subsets. Another code pattern is included for the MTDLs in Table 1, which indicates the derivative CAI type (sulphonamide, S or coumarin, C) and the number of atoms in the spacers connecting either berberine and the triazole (carbon atoms) or the triazole and the benzenesulfonamide/coumarin scaffolds (carbon or oxygen atoms).
(§3) An Applied Photophysics stopped-flow instrument has been used for assaying the CA-catalysed CO2 hydration activity, as reported earlier. The enzyme concentrations were in the range 5–12 nM. All hCA isoforms were recombinant proteins, being obtained in-house as reported earlier.

[4] = test system: c-Myc; test: CD melting experiments, c-Myc GQ; format: binding; conditions: for ΔT1/2 c-Myc: 1 molar equiv compound, T1/2 of DNA alone 70.0 °C; for ΔΔT1/2 c-Myc: ΔT1/2 of compound minus ΔT1/2 of berberine, 1 molar equiv
Description: as §1, §2

[5] = molecular target: T2, hCA IX (Homo sapiens, UniProt Q16790); test: stopped-flow CO2 hydrase assay, hCA IX; format: biochemical; conditions: for Selectivity index (SI) I/IX: hCA IX over hCA I; for Selectivity index (SI) II/IX: hCA IX over hCA II; for Ki: mean ± SEM of three assays
T2 construct: made in house
Description: (§4) An Applied Photophysics stopped-flow instrument has been used for assaying the CA-catalysed CO2 hydration activity, as reported earlier. […] All hCA isoforms were recombinant proteins, being obtained in-house as reported earlier.

[6] = molecular target: T3, hCA XII (Homo sapiens, UniProt O43570); test: stopped-flow CO2 hydrase assay, hCA XII; format: biochemical; conditions: for Selectivity index (SI) I/XII: hCA XII over hCA I; for Selectivity index (SI) II/XII: hCA XII over hCA II; for Ki: mean ± SEM of three assays
T3 construct: made in house
Description: as §4

[7] = test system: c-Kit1; test: CD melting experiments, c-Kit1 GQ; format: binding; conditions: for ΔT1/2 c-Kit1: 2 molar equiv compound, T1/2 of DNA alone 55.0 °C; for ΔΔT1/2 c-Kit1: ΔT1/2 of compound minus ΔT1/2 of berberine, 2 molar equiv
Description: as §1, §2

[8] = molecular target: T4, hCA I (Homo sapiens, UniProt P00915); test: stopped-flow CO2 hydrase assay, hCA I; format: biochemical
T4 construct: made in house
Description: as §3

[9] = sulphonamides, inhibitor-enzyme incubation 15 min, mean ± SEM of three assays
[10] = sulphonamides, inhibitor-enzyme incubation 15 min
[11] = coumarins, inhibitor-enzyme incubation 6 h

T4 sequence (P00915 whole entry): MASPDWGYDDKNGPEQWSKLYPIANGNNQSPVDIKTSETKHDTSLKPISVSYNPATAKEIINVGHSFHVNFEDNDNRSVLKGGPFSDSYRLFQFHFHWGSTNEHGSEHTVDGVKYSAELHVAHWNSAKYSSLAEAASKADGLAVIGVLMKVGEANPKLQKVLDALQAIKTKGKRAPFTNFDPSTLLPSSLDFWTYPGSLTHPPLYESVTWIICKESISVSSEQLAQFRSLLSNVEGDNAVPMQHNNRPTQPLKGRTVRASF
T3 sequence (O43570 25-354): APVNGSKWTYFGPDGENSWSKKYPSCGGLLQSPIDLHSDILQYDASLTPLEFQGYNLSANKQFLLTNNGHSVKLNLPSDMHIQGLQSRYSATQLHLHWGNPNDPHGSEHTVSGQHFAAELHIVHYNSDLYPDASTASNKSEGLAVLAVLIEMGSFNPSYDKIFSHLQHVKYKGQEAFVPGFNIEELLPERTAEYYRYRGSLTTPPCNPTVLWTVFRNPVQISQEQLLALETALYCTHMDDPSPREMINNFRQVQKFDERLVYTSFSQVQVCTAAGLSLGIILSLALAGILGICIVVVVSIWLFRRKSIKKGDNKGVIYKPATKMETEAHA

| Structure (SMILES) | Ki [3, 9] | Selectivity index (SI) I/IX [5] | Selectivity index (SI) II/IX [5] | Ki [5, 10] [µM] | Selectivity index (SI) I/XII [6] | Selectivity index (SI) II/XII [6] | Ki [6, 10] [µM] | Ki [8, 9] [µM] | Ki [3, 11] [µM] | Ki [5, 11] [µM] | Ki [6, 11] [µM] | Ki [8, 11] [µM] | ΔT1/2 Tel23 [1] [°C] | ΔΔT1/2 Tel23 [1] [°C] | ΔT1/2 Hairpin [2] | ΔT1/2 c-Myc [4] [°C] | ΔΔT1/2 c-Myc [4] [°C] | ΔT1/2 c-Kit1 [7] [°C] | ΔΔT1/2 c-Kit1 [7] [°C] | other results |
| --- | --- | --- | --- | --- | --- | --- | --- | --- | --- | --- | --- | --- | --- | --- | --- | --- | --- | --- | --- | --- |
| COc1ccc2cc3[n+](cc2c1OCc1cn(-c2ccc(S(N)(=O)=O)cc2)nn1)CCc1cc2c(cc1-3)OCO2 [Compound 41, 10-Methoxy-9-((1–(4-sulfamoylphenyl)-1H-1,2,3-triazol-4-yl)methoxy)-5,6-dihydro-[1,3]dioxolo[4,5-g]isoquinolino[3,2-a]isoquinolin-7-ium hexafluorophosphate] | 0.0229 ± 0.0014 µM | 307.1 | 8.5 | 0.0027 ± 0.0002 | 135.9 | 3.8 | 0.0061 ± 0.0003 | 0.829 ± 0.0503 |  |  |  |  | 5.5 | −4.0 | +2.5 °C | 14.5 | 2.5 | 15.0 | 2.0 |  |
| COc1ccc2cc3[n+](cc2c1OCc1cn(CCCOc2ccc4ccc(=O)oc4c2)nn1)CCc1cc2c(cc1-3)OCO2 [Compound 42, 10-Methoxy-9-((1–(3-((2-oxo-2H-chromen-7-yl)oxy)propyl)-1H-1,2,3-triazol-4-yl)methoxy)-5,6-dihydro-[1,3]dioxolo[4,5-g]isoquinolino[3,2-a]isoquinolin-7-ium hexafluorophosphate] |  | > 284.9 | > 284.9 |  | > 980.4 | > 980.4 |  |  | > 100 | 0.0351 ± 0.0028 | 0.0102 ± 0.0008 | > 100 | 10.5 | 1.0 | +0.5 °C | 16.0 | 4.0 | 17.0 | 4.0 |  |
| COc1ccc2cc3[n+](cc2c1OCc1cn(-c2ccc4c(C)cc(=O)oc4c2)nn1)CCc1cc2c(cc1-3)OCO2 [Compound 45, 10-Methoxy-9-((1–(4-methyl-2-oxo-2H-chromen-7-yl)-1H-1,2,3-triazol-4-yl)methoxy)-5,6-dihydro-[1,3]dioxolo[4,5-g]isoquinolino[3,2-a]isoquinolin-7-ium hexafluorophosphate] |  | > 194.2 | > 194.2 |  | > 1852 | > 1852 |  |  | > 100 | 0.0515 ± 0.0036 | 0.0054 ± 0.0003 | > 100 | 7.0 | −2.5 | +2.5 °C |  | >13.0 | 16.5 | 3.5 | ΔΔT1/2 c-Myc ([4]; listed as C-1,0c): > 13.0 °C |

Further lines, with some results ahead:

| Ki [3, 9] | Selectivity index (SI) I/IX [5] | Selectivity index (SI) II/IX [5] | Ki [5, 10] [µM] | Selectivity index (SI) I/XII [6] | Selectivity index (SI) II/XII [6] | Ki [6, 10] [µM] | Ki [8, 9] [µM] | Ki [3, 11] [µM] | Ki [5, 11] [µM] | Ki [6, 11] [µM] | Ki [8, 11] [µM] | Structure (SMILES) | ΔT1/2 Tel23 [1] [°C] | ΔΔT1/2 Tel23 [1] [°C] | ΔT1/2 Hairpin [2] | ΔT1/2 c-Myc [4] [°C] | ΔΔT1/2 c-Myc [4] [°C] | ΔT1/2 c-Kit1 [7] [°C] | ΔΔT1/2 c-Kit1 [7] [°C] | other results |
| --- | --- | --- | --- | --- | --- | --- | --- | --- | --- | --- | --- | --- | --- | --- | --- | --- | --- | --- | --- | --- |
|  | > 392.2 | > 392.2 |  | > 2381 | > 2381 |  |  | > 100 | 0.0255 ± 0.0015 | 0.0042 ± 0.0003 | > 100 | COc1ccc2cc3[n+](cc2c1OCc1cn(CCCCOc2ccc4ccc(=O)oc4c2)nn1)CCc1cc2c(cc1-3)OCO2 [Compound 43, 10-Methoxy-9-((1–(4-((2-oxo-2H-chromen-7-yl)oxy)butyl)-1H-1,2,3-triazol-4-yl)methoxy)-5,6-dihydro-[1,3]dioxolo[4,5-g]isoquinolino[3,2-a]isoquinolin-7-ium hexafluorophosphate] | 7.0 | −2.5 | -0.5 °C | 14.0 | 2.0 | 16.5 | 3.5 |  |
|  | > 1041 | > 1041 |  | > 689.7 | > 689.7 |  |  | > 100 | 0.0096 ± 0.0005 | 0.0145 ± 0.0009 | > 100 | COc1ccc2cc3[n+](cc2c1OCc1cn(CCCCCOc2ccc4ccc(=O)oc4c2)nn1)CCc1cc2c(cc1-3)OCO2 [Compound 44, 10-Methoxy-9-((1–(5-((2-oxo-2H-chromen-7-yl)oxy)pentyl)-1H-1,2,3-triazol-4-yl)methoxy)-5,6-dihydro-[1,3]dioxolo[4,5-g]isoquinolino[3,2-a]isoquinolin-7-ium hexafluorophosphate] | 7.5 | −2.0 | +1.0 °C |  | >13.0 | 17.5 | 4.5 | ΔΔT1/2 c-Myc ([4]; listed as C-1,6): > 13.0 °C |
| 0.0215 µM and 0.0221 µM | 4.2 | 1.2 | 0.0178 ± 0.0009 | 2.1 | 0.6 | 0.0359 ± 0.0021 | 0.0751 ± 0.0054 |  |  |  |  | COc1ccc2cc3[n+](cc2c1OCCCS(N)(=O)=O)CCc1cc2c(cc1-3)OCO2 [Compound 47, 10-methoxy-9–(3-sulfamoylpropoxy)-5,6-dihydro-[1,3]dioxolo[4,5-g]isoquinolino[3,2-a]isoquinolin-7-ium hexafluorophosphate] | 6.5 | −3.0 | +2.0 °C | 12.5 | 0.5 | 15.5 | 2.5 |  |
